Results on five substances are retold here after patent US7268155B2, “Photosensitizer conjugates for pathogen targeting” (The General Hospital Corporation, priority 1997, dated 2007).

Data set [1] deals with HCPC-1 cells. The data set can be described thus: Phototoxicity to HCPC-1 cells after irradiation, MTT assay. It counts as cell-based, hamster. To be noted: 5 μM photosensitizer, light 630-710 nm, MTT 24 h after irradiation. Here is the method: HCPC-1 cells, 2×10^4 in aliquots of 100 μl growth medium with 10% FCS, were seeded in 96-well plates and cultured for 24 h until 70% confluent. Six wells from each plate were incubated with 5 μM of each photosensitizer and irradiated using the conditions described in Example 3. After illumination, cells were incubated with fresh medium at 37° C. for 24 h. Control cells were incubated under the conditions as in Example 3. Cell viability was determined 24 h after irradiation using the MTT-microculture tetrazolium assay, a method that assesses dehydrogenase activity in mitochondria of live cells (Mosmann T. J. Immunol. Methods 65, 55-63, 1983), and survival fractions were calculated as 570 nm absorbance of treated cells divided by that of unirradiated controls.
In general terms: Tetrazolium assays rely on reduction of a dye to a coloured formazan, in cell work by metabolically active cells.

Data set [2] relates to P. gingivalis. It counts as cell-based, Porphyromonas gingivalis. On the procedure:
In order to establish the effectiveness and selectivity of these conjugates for killing bacteria while sparing mammalian cells, the three conjugates were compared to two widely used clinical photosensitizers, Photofrin II and benzoporphyrin derivative (BPD) (QLT Phototherapeutics Inc., Vancouver, BC). Photosensitizer bulk solid was dissolved in DMSO at 1 mM and diluted in TSB.
Suspensions of P. gingivalis cells (10^8/ml) were incubated in duplicate in the dark at room temperature for 1 min with 5 μm chlorin e6 equivalent of each conjugate, with Photofrin II, and with BPD. Cells were centrifuged, washed once with sterile PBS, and 1 ml fresh TSB was added. In the Example here, the ratios of uptake of chlorin e6 per mg cell protein in P. gingivalis and HCPC-1 cells for the cationic, anionic and neutral conjugates were 46:1, 60:1 and 22:1, respectively.
Bacterial suspensions were added to wells of 12-well plates, and were irradiated in the dark at room temperature using a light emitting diode array which emitted light with wavelengths from 630-710 nm, spanning the absorbance maxima of these photosensitizer compositions. Wells were exposed from below, using fluences from 0 to 25 J/cm^2 at an irradiance of 65 mW/cm^2. Plates were covered during illumination to maintain sterility of the cultures. After illumination of the appropriate wells, serial dilutions of the contents of each well were prepared in TSB, and duplicate 100 μl aliquots were spread on the surfaces of blood agar plates. Survival fractions in each well were calculated by counting the colonies on the plates and dividing by number of colonies from unirradiated controls incubated with photosensitizer in the dark at room temperature for periods equal to irradiation times. Other controls were: bacteria treated neither with photosensitizer nor light, and incubated at room temperature in the dark, and cells exposed to light in the absence of photosensitizer.

The subject of data set [3] is P. gingivalis. Particulars: cited from earlier work.
For data set [4], the system named is Porphyromonas gingivalis 381. Kind of data set: Uptake of chlorin e6 conjugates by P. gingivalis cells (fluorescence of cell extract per mg cell protein). It counts as cell-based. To be noted: P. gingivalis 10^9 cells/ml, 1 min incubation, at each concentration (1, 5 and 10 μm chlorin e6 equivalent). On the procedure: Porphyromonas gingivalis 381, a Gram negative bacterium and one of the most common species in dental plaque, was maintained by weekly subculture in Trypticase Soy Agar (TSA) with 1% hemin, 1% vitamin K and 5% sheep blood. For experimental purposes, the organism was grown anaerobically in a chamber with 80% N2, 10% CO2 at 35° C. for 48 h, harvested by centrifugation and resuspended in Trypticase Soy Broth (TSB) with 1% hemin and 1% vitamin K. Cells were dispersed by sonication and repeated passage through Pasteur pipettes. Cell numbers were measured in a spectrophotometer (at wavelength 600 nm, in which an O.D. of 1 yields 10^8 cells/ml) using one ml tubes, to obtain the appropriate number of bacteria for each experiment (10^9 cells/ml for uptake studies and 10^8 cells/ml for irradiation studies). […]
Fluorescence of each cell extract was measured on a spectrofluorimeter (model FluoroMax, SPEX Industries, Edison, N.J.). The excitation wavelength was 400 nm and emission spectra of cell suspensions were recorded from 580 to 700 nm. The protein content of each cell extract was determined by a modified Lowry method (Markwell M. A. et al. Anal. Biochem. 87:206, 1978) using bovine serum albumin dissolved in 0.1 M NaOH/1% SDS as a protein standard to construct calibration curves. Results were expressed as mol chlorin e6 taken up per mg cell protein.

Usually Kd stands for the free concentration of one partner at which half of the binding sites on the other are occupied at equilibrium, for simple one-to-one binding.

In the case of “benzoporphyrin derivative [BPD, reference compound]”, the “killing of HCPC-1 cells (in words)” value in data set [1] is recorded as “killed HCPC-1 cells”. The “killing of P. gingivalis (in words)” value in data set [2] (1 min incubation, light 630-710 nm, fluences 0 to 25 J/cm^2) is recorded as “not P. gingivalis”.

Turning to histatin-5, the “number of molecules that bind P. gingivalis” value in data set [3] is reported as “About 3,600 molecules”. Also, in data set [3] (read-out: Kd of binding to P. gingivalis), the Kd was roughly 1000 nM.

With “polylysine chlorin e6 [polylysine-chlorin e6]”, the “accumulation of the cationic conjugate compared to the anionic and neutral conjugates” value in data set [4] is reported as 2 times. In data set [1], the HCPC-1 cells killed result was “less than 2%”. The “bacteria killed / reduction in viability of P. gingivalis” value in data set [2] was determined as 99.9%.

For the substance “polylysine chlorin e6 acetylated [polylysine-chlorin e6-ac]”, in data set [1], the “killing of HCPC-1 cells (in words)” value is on record as “not HCPC-1 cells”. Further, the “bacteria killed / reduction in viability of P. gingivalis” value in data set [2] was “over 90%”.

As for “polylysine chlorin e6-succinylated [polylysine-chlorin e6-succ]”, in data set [2], the “bacteria killed / reduction in viability of P. gingivalis” value is listed as 66%.
